Data published in patent US20250034170A1, “SMALL MOLECULE MODULATORS OF GLUCOCEREBROSIDASE ACTIVITY AND USES THEREOF” (Vanqua Bio, Inc., priority 2021, published 2025).

What follows are compounds tested against T1, GCase (Homo sapiens, UniProt P04062) (assay: activation of GCase in a live cell PFB assay in HELA cells). Details: activation of GCase, EC50 ranges.
T1 construct: endogenous in cells; host or cells: HeLa cells
T1 sequence (P04062 40-536): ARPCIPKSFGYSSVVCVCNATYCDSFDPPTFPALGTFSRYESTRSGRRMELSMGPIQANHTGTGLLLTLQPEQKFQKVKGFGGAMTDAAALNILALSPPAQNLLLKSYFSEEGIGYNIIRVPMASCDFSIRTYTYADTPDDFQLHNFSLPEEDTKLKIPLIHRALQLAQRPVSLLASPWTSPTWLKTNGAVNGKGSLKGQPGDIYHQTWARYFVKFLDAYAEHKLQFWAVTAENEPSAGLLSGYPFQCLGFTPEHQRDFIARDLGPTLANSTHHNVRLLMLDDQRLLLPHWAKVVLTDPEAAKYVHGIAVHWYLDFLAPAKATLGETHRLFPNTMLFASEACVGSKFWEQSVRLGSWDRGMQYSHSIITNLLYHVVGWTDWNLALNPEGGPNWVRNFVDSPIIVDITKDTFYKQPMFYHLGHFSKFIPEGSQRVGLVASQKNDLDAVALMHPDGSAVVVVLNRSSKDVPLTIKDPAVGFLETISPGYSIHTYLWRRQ
Format: cell-based
Description: Exemplary compounds were evaluated for activation of GCase in a live cell PFB assay in HELA cells (essentially as described in Ysselstein et al., “LRRK2 kinase activity regulates lysosomal glucocerebrosidase in neurons derived from Parkinson's disease patients” Nature Communications (2019) 10:5570). […] EC50 ranges: A: <10 μM; B: >10-50 μM; C: >50-100 μM; D: >100 μM.

| EC50 [µM] | Compound |
| --- | --- |
| 10 to 50 | FC(F)Cn1ncc2ncc(N3CCC4(CC3)CC(Oc3cccc(C(F)(F)F)n3)C4)nc21 [Compound 84, 7-[1-(2,2-difluoroethyl)-1H-pyrazolo[3,4-b]pyrazin-6-yl]-2-{[6-(trifluoromethyl)pyridin-2-yl]oxy}-7-azaspiro[3.5]nonane] |
| 10 to 50 | FC(F)Cn1ncc2ncc(N3CCC4(CC3)CC(COc3cccc(C(F)(F)F)n3)C4)nc21 [Compound 85, 7-[1-(2,2-difluoroethyl)-1H-pyrazolo[3,4-b]pyrazin-6-yl]-2-({[6-(trifluoromethyl)pyridin-2-yl]oxy}methyl)-7-azaspiro[3.5]nonane] |
| 10 to 50 | O=C1N(c2cccc(C(F)(F)F)n2)CCC12CCCN(c1cnc3cnn(CC(F)F)c3n1)C2 (centres unmarked) [Compound 96, 7-[1-(2,2-difluoroethyl)-1H-pyrazolo[3,4-b]pyrazin-6-yl]-2-[6-(trifluoromethyl)pyridin-2-yl]-2,7-diazaspiro[4.5]decan-1-one] |
| 10 to 50 | O=C1CC2(CCN(c3cnc4cnn(CC(F)F)c4n3)CC2)CN1c1cccc(C(F)(F)F)n1 [Compound 101, 8-[1-(2,2-difluoroethyl)-1H-pyrazolo[3,4-b]pyrazin-6-yl]-2-[6-(trifluoromethyl)pyridin-2-yl]-2,8-diazaspiro[4.5]decan-3-one] |
| 10 to 50 | FC(F)(F)c1cc(N2CCCC3(C2)CN(c2cnc4cn(Cc5ccccc5)nc4n2)C3)ccn1 [Compound 103, 2-{2-benzyl-2H-pyrazolo[3,4-b]pyrazin-6-yl}-6-[2-(trifluoromethyl)pyridin-4-yl]-2,6-diazaspiro[3.5]nonane] |
| 10 to 50 | FC(F)(F)c1cc(N2CCCC3(C2)CN(c2cnc4cnn(Cc5ccccc5)c4n2)C3)ccn1 [Compound 104, 2-{1-benzyl-1H-pyrazolo[3,4-b]pyrazin-6-yl}-6-[2-(trifluoromethyl)pyridin-4-yl]-2,6-diazaspiro[3.5]nonane] |
| 10 to 50 | FC(F)Cn1ncc2ncc(NC3CCC4(CC3)CN(c3cccnc3C(F)(F)F)C4)nc21 [Compound 109, N-[1-(2,2-difluoroethyl)-1H-pyrazolo[3,4-b]pyrazin-6-yl]-2-[2-(trifluoromethyl)pyridin-3-yl]-2-azaspiro[3.5]nonan-7-amine] |
| 10 to 50 | O=C1CC2(CCN(c3ccc(C(F)(F)F)nc3)CC2)CN1c1cnc2cnn(CC(F)F)c2n1 [Compound 110, 2-[1-(2,2-difluoroethyl)-1H-pyrazolo[3,4-b]pyrazin-6-yl]-8-[6-(trifluoromethyl)pyridin-3-yl]-2,8-diazaspiro[4.5]decan-3-one] |
| 10 to 50 | O=C1N(c2cccc(C(F)(F)F)n2)CCCC12CN(c1cnc3cnn(CC(F)F)c3n1)C2 [Compound 115, 2-[1-(2,2-difluoroethyl)-1H-pyrazolo[3,4-b]pyrazin-6-yl]-6-[6-(trifluoromethyl)pyridin-2-yl]-2,6-diazaspiro[3.5]nonan-5-one] |
| 10 to 50 | COCCN1CCC2(CCN(c3cnc4cnn(CC(F)F)c4n3)CC2)C1=O [Compound 116, 8-[1-(2,2-difluoroethyl)-1H-pyrazolo[3,4-b]pyrazin-6-yl]-2-(2-methoxyethyl)-2,8-diazaspiro[4.5]decan-1-one] |
| < 10 | FC(F)Cn1ncc2ncc(N3CC4(CCN(c5ccnc(C(F)(F)F)c5)CC4)C3)nc21 [Compound 117, 2-[1-(2,2-difluoroethyl)-1H-pyrazolo[3,4-b]pyrazin-6-yl]-7-[2-(trifluoromethyl)pyridin-4-yl]-2,7-diazaspiro[3.5]nonane] |

More lines, now with the values behind:

| Compound | EC50 [µM] |
| --- | --- |
| FC(F)Cn1ncc2ncc(N3CCC4(CCC4Oc4cccc(C(F)(F)F)n4)CC3)nc21 (centres unmarked) [Compound 83, 7-[1-(2,2-difluoroethyl)-1H-pyrazolo[3,4-b]pyrazin-6-yl]-1-{[6-(trifluoromethyl)pyridin-2-yl]oxy}-7-azaspiro[3.5]nonane] | 10 to 50 |
| FC(F)Cn1ncc2ncc(N3CCC4(CCC(Oc5cccnc5C(F)(F)F)C4)CC3)nc21 (centres unmarked) [Compound 86, 8-[1-(2,2-difluoroethyl)-1H-pyrazolo[3,4-b]pyrazin-6-yl]-2-{[2-(trifluoromethyl)pyridin-3-yl]oxy}-8-azaspiro[4.5]decane] | < 10 |
| FC(F)Cn1ncc2ncc(N3CCC4(CCC4Oc4cccnc4C(F)(F)F)CC3)nc21 (centres unmarked) [Compound 87, 7-[1-(2,2-difluoroethyl)-1H-pyrazolo[3,4-b]pyrazin-6-yl]-1-{[2-(trifluoromethyl)pyridin-3-yl]oxy}-7-azaspiro[3.5]nonane] | < 10 |
| FC(F)Cn1ncc2ncc(N3CCC4(CC3)CC(Oc3cccnc3C(F)(F)F)C4)nc21 [Compound 88, 7-[1-(2,2-difluoroethyl)-1H-pyrazolo[3,4-b]pyrazin-6-yl]-2-{[2-(trifluoromethyl)pyridin-3-yl]oxy}-7-azaspiro[3.5]nonane] | < 10 |
| FC(F)Cn1ncc2ncc(N3CCC4(CC3)CC(COc3cccnc3C(F)(F)F)C4)nc21 [Compound 89, 7-[1-(2,2-difluoroethyl)-1H-pyrazolo[3,4-b]pyrazin-6-yl]-2-({[2-(trifluoromethyl)pyridin-3-yl]oxy}methyl)-7-azaspiro[3.5]nonane] | 10 to 50 |
| O=C1CC2(CCCN(c3cnc4cnn(CC(F)F)c4n3)C2)CN1c1cccc(C(F)(F)F)n1 (centres unmarked) [Compound 95, 7-[1-(2,2-difluoroethyl)-1H-pyrazolo[3,4-b]pyrazin-6-yl]-2-[6-(trifluoromethyl)pyridin-2-yl]-2,7-diazaspiro[4.5]decan-3-one] | 10 to 50 |
| O=C1CC2(CCCN(c3cnc4cnn(CC(F)F)c4n3)C2)CN1c1cc(C(F)(F)F)ccn1 (centres unmarked) [Compound 97, 7-[1-(2,2-difluoroethyl)-1H-pyrazolo[3,4-b]pyrazin-6-yl]-2-[4-(trifluoromethyl)pyridin-2-yl]-2,7-diazaspiro[4.5]decan-3-one] | 50 to 100 |
| O=C1N(c2cc(C(F)(F)F)ccn2)CCC12CCCN(c1cnc3cnn(CC(F)F)c3n1)C2 (centres unmarked) [Compound 98, 7-[1-(2,2-difluoroethyl)-1H-pyrazolo[3,4-b]pyrazin-6-yl]-2-[4-(trifluoromethyl)pyridin-2-yl]-2,7-diazaspiro[4.5]decan-1-one] | 50 to 100 |
| O=C1N(c2cnc3cnn(CC(F)F)c3n2)CCC12CCN(c1cccc(C(F)(F)F)n1)CC2 [Compound 99, 2-[1-(2,2-difluoroethyl)-1H-pyrazolo[3,4-b]pyrazin-6-yl]-8-[6-(trifluoromethyl)pyridin-2-yl]-2,8-diazaspiro[4.5]decan-1-one] | < 10 |
| O=C1CC2(CCN(c3cccc(C(F)(F)F)n3)CC2)CN1c1cnc2cnn(CC(F)F)c2n1 [Compound 100, 2-[1-(2,2-difluoroethyl)-1H-pyrazolo[3,4-b]pyrazin-6-yl]-8-[6-(trifluoromethyl)pyridin-2-yl]-2,8-diazaspiro[4.5]decan-3-one] | 10 to 50 |
| O=C1N(c2cccc(C(F)(F)F)n2)CCC12CCN(c1cnc3cnn(CC(F)F)c3n1)CC2 [Compound 102, 8-[1-(2,2-difluoroethyl)-1H-pyrazolo[3,4-b]pyrazin-6-yl]-2-[6-(trifluoromethyl)pyridin-2-yl]-2,8-diazaspiro[4.5]decan-1-one] | 10 to 50 |
| Cn1c(-c2ccccc2)c(C(=O)N2CCCC3(CC(Oc4cccnc4C(F)(F)F)C3)C2)c2nccnc21 (centres unmarked) [Compound 108, 6-{5-methyl-6-phenyl-5H-pyrrolo[2,3-b]pyrazine-7-carbonyl}-2-{[2-(trifluoromethyl)pyridin-3-yl]oxy}-6-azaspiro[3.5]nonane] | 10 to 50 |
| O=C1CC2(CCN(c3cncc(C(F)(F)F)c3)CC2)CN1c1cnc2cnn(CC(F)F)c2n1 [Compound 111, 2-[1-(2,2-difluoroethyl)-1H-pyrazolo[3,4-b]pyrazin-6-yl]-8-[5-(trifluoromethyl)pyridin-3-yl]-2,8-diazaspiro[4.5]decan-3-one] | 10 to 50 |
| O=C1CC2(CCN(c3ccc(C(F)(F)F)cn3)CC2)CN1c1cnc2cnn(CC(F)F)c2n1 [Compound 112, 2-[1-(2,2-difluoroethyl)-1H-pyrazolo[3,4-b]pyrazin-6-yl]-8-[5-(trifluoromethyl)pyridin-2-yl]-2,8-diazaspiro[4.5]decan-3-one] | 10 to 50 |
| O=C1CC2(CCN(c3ncccc3C(F)(F)F)CC2)CN1c1cnc2cnn(CC(F)F)c2n1 [Compound 113, 2-[1-(2,2-difluoroethyl)-1H-pyrazolo[3,4-b]pyrazin-6-yl]-8-[3-(trifluoromethyl)pyridin-2-yl]-2,8-diazaspiro[4.5]decan-3-one] | > 100 |
| O=C1CCC2(CN(c3cnc4cnn(CC(F)F)c4n3)C2)CN1c1cccc(C(F)(F)F)n1 [Compound 114, 2-[1-(2,2-difluoroethyl)-1H-pyrazolo[3,4-b]pyrazin-6-yl]-6-[6-(trifluoromethyl)pyridin-2-yl]-2,6-diazaspiro[3.5]nonan-7-one] | 10 to 50 |
| O=C1N(c2cnc3cnn(CC(F)F)c3n2)CCC12CCN(c1ccnc(C(F)(F)F)c1)CC2 [Compound 118, 2-[1-(2,2-difluoroethyl)-1H-pyrazolo[3,4-b]pyrazin-6-yl]-8-[2-(trifluoromethyl)pyridin-4-yl]-2,8-diazaspiro[4.5]decan-1-one] | 10 to 50 |
| O=C1N(c2cnc3cnn(CC(F)F)c3n2)CCC12CCN(c1ccc(C(F)(F)F)nc1)CC2 [Compound 119, 2-[1-(2,2-difluoroethyl)-1H-pyrazolo[3,4-b]pyrazin-6-yl]-8-[6-(trifluoromethyl)pyridin-3-yl]-2,8-diazaspiro[4.5]decan-1-one] | < 10 |
